Results on seven compounds are retold here after PMC5839262, “Inhibitors of bacterial protease enzymes for periodontal therapy” (Clinical and Experimental Dental Research, 2015).

Read-outs that look alike come from different tables or passages of the source. Where a SMILES comes first, the peptide text is derived from it.

One series deals with Kgp (Porphyromonas gingivalis, UniProt B2RLK2). The series can be described thus: Kgp gingipain activity, fluorescent assay with Boc‐VLK‐AMC in Pg cell suspensions. In kind it is biochemical. The protocol: (§1) To obtain culture media for measuring secreted gingipain activity, we removed bacteria by centrifugation followed by filtration through 0.2‐µm filters, and we supplemented the medium with 0.2 mM PMSF to block any serine‐protease activity. To measure cell‐associated activity, we resuspended bacteria to an optical density of 4.0 at 600 nm (4 × 10^9 CFU/mL) in DPBS, and PMSF was added. Portions of the media and bacterial suspensions were frozen in liquid nitrogen and stored at −80°C.
(§2) The gingipain assay was adapted from procedures of Chen et al. (2001) and Suwannakul et al. (2010). To measure activity of Rgp or Kgp, respectively, we incubated various volumes of media or bacterial suspensions 10 min at 37°C in DPBS with 1 mM L‐cysteine to ensure that the gingipain active‐site cysteine was in the reduced, active form, and then we added the substrate benzoyl‐R‐AMC or Boc‐VLK‐AMC to give 0.2 mM substrate in a final volume of 0.1 mL. The incubation was continued 15 min at 37°C in black multiwell plates. Incubations were stopped by adding 50 μL of 1.5 mM TLCK, an irreversible inhibitor of serine and cysteine proteases. Fluorescence was measured with a fluorescence plate reader (SpectraMax Gemini EM, Molecular Devices, Sunnyvale, CA) with excitation at 365 nm and emission at 460 nm to measure hydrolysis of the substrate and release of the fluorescent product.
(§3) To measure effects of inhibitors on Rgp or Kgp activity, we diluted conditioned media fivefold or bacterial suspensions fiftyfold with DPBS, and we selected a diluted sample volume of 20 μL or less that gave a strong fluorescent signal, and we incubated the sample 15 min in DPBS with 0.2 mM substrate and various levels of protease inhibitors.

The next series has as its system Rgp. The series is described as follows: Rgp gingipain activity, fluorescent assay with benzoyl‐R‐AMC in Pg cell suspensions. The following applies: for IC50: 0.2 mM benzoyl‐R‐AMC, 15 min, read-out: concentration causing 50% inhibition of Rgp activity; for effect on Rgp activity: concentrations up to 1 × 10^−4 M, results not shown. It is filed as biochemical, Porphyromonas gingivalis. As to the method:
as §1, §2, §3

Another series in a line: Water solubility. In kind it is physicochemical. Particulars: stated in discussion.
The next series relates to Pg. The series is described as follows: Bactericidal activity, LIVE/DEAD BacLight viability assay. In kind it is cell-based, Porphyromonas gingivalis. The following applies: 1 h; for bactericidal activity: both Pg strains, concentrations up to 1 × 10^−4 M. The protocol:
Pg bacteria were collected by centrifugation and diluted to 2 × 10^8 CFU/mL in isotonic saline at 25°C. Pg (10^8 CFU/mL) were then incubated with various concentrations of protease inhibitors at 37°C with gentle mixing in 0.1 mL incubation mixtures in black multiwell plates inside AnaeroGen™ Compact pouches (Oxoid Corporation, Nepean, ON, Canada) to lower the oxygen (O2) concentration. After 1 h, the number of live bacteria per milliliter was measured with a LIVE/DEAD BacLight™ Bacterial Viability kit (Invitrogen, Inc., Carlsbad, CA). The assay determines the number of live bacteria based on entry of the fluorescent dyes SYTO 9 and propidium iodide into the bacteria. SYTO 9 enters both live and dead bacteria and binds to DNA, giving a green fluorescence. Propidium iodide enters only dead bacteria and binds to DNA, giving a red fluorescence. A 0.1 mL portion of 2× BacLight dye mixture was added to the bacteria in the wells, and the plate was incubated 15 min at 37°C in an AnaeroGen™ pouch in the dark. Immediately following removal of the plate from the pouch, fluorescence was measured in a fluorescence plate reader with excitation at 485 nm. Green fluorescence of SYTO 9 was measured at 538 nm, and red fluorescence of propidium iodide was measured at 612 nm. Standard curves were prepared with various ratios of live and dead bacteria, and the number of live bacteria was determined from the ratio of green to red fluorescence. Control experiments were performed in which Pg viability was measured by diluting, plating on blood agar plates, and counting colonies after 1 to 2 weeks at 37°C under anaerobic conditions to confirm that the plating and fluorescent assays provided similar results. Toxicity of the protease inhibitors to E. coli was also measured. Assay conditions were the same as for Pg except that incubations were in air.

Another series relates to cultured human cells. Also noted: method as in Kadowaki et al., 2004; Kataoka et al., 2014. The following applies: ref Kadowaki et al., 2004; Kataoka et al., 2014; cited from earlier work.
The next series has as its system E. coli. The series can be described thus: Bactericidal activity, LIVE/DEAD BacLight viability assay. It is filed as cell-based, Escherichia coli. The following applies: 1 h. The protocol:
Escherichia coli strain 43827 was purchased from the American Type Culture Collection and grown in TSB overnight with shaking in air at 37°C. Suspensions were serially diluted in saline and plated on TSB agar to determine CFU per milliliter.
Pg bacteria were collected by centrifugation and diluted to 2 × 10^8 CFU/mL in isotonic saline at 25°C. Pg (10^8 CFU/mL) were then incubated with various concentrations of protease inhibitors at 37°C with gentle mixing in 0.1 mL incubation mixtures in black multiwell plates inside AnaeroGen™ Compact pouches (Oxoid Corporation, Nepean, ON, Canada) to lower the oxygen (O2) concentration. After 1 h, the number of live bacteria per milliliter was measured with a LIVE/DEAD BacLight™ Bacterial Viability kit (Invitrogen, Inc., Carlsbad, CA). […] SYTO 9 enters both live and dead bacteria and binds to DNA, giving a green fluorescence. Propidium iodide enters only dead bacteria and binds to DNA, giving a red fluorescence. […] Immediately following removal of the plate from the pouch, fluorescence was measured in a fluorescence plate reader with excitation at 485 nm. Green fluorescence of SYTO 9 was measured at 538 nm, and red fluorescence of propidium iodide was measured at 612 nm. Standard curves were prepared with various ratios of live and dead bacteria, and the number of live bacteria was determined from the ratio of green to red fluorescence. […]

The test system of the next series is cathepsin B. Further details: method as in McConnell et al., 1993. The following applies: ref McConnell et al., 1993; cited from earlier work.

On to `CC(C)C[C@H](NC(=O)[C@H]1O[C@@H]1C(=O)O)C(=O)NCCCCN=C(N)N` (relative stereo) [E64, trans‐epoxysuccinyl‐L‐leucylamido‐(4‐guanidino)butane], for which the “effect on Kgp activity” value at Kgp (any concentration tested, Pg 33277 cell suspensions) is reported as “no effect”. Besides, in the series on Rgp (Pg 33277 cell suspensions), the “concentration causing 90% inhibition of Rgp activity” value turned out to be 1 mM and the IC50 came to 50000 nM.
Consider `CN(C)C(=O)[C@H](CCCCN)NC(=O)C(=O)[C@H](CCCNC(=N)N)NC(=O)[C@H](CCCCN)NC(=O)OCc1ccccc1` [KYT‐1, carbobenzoxy‐Lys‐Arg‐CO‐Lys‐N(CH3)2], for which the water solubility entry in the series “Water solubility” was “water soluble”. Further, in the series with Pg, the bactericidal activity result is given as “not bactericidal”. Besides, the IC50 came out at 20000 nM on Kgp and 2 nM with Rgp (Pg 33277 cell suspensions). Moreover, the “difference in concentrations causing 50% inhibition of Rgp and Kgp” value in the series on Rgp (Rgp versus Kgp, cell suspensions) is given as 10,000 fold. Further, the “toxicity to cultured human cells” value with cultured human cells is “non‐toxic”.
Consider `CN(NC(=O)CC[C@H](NC(=O)OCc1ccccc1)C(=O)N[C@@H](CCCCN)C(=O)C(=O)NCc1ccccc1)c1ccccc1` [KYT‐36, carbobenzoxy‐Glu(NHN(CH3)Ph)‐Lys‐CO‐NHCH2Ph], for which the water solubility result in “Water solubility” is “water soluble”. Besides, in the series with Pg, the bactericidal activity entry is recorded as “not bactericidal”. The compound further came in with an IC50 against Kgp of 1 nM. Also, the “effect on Rgp activity” value in the series on Rgp is on record as “did not inhibit Rgp”. Further, in the series on cultured human cells, the “toxicity to cultured human cells” value is recorded as “non‐toxic”.
With `NC(N)=NCCC[C@H](NC(=O)[C@@H]1CCCN1C(=O)[C@H](N)Cc1ccccc1)C(=O)CCl` [PPACK, D‐Phe‐Pro‐Arg‐chloromethylketone], the IC50 was determined as 20 nM at Kgp (Pg 33277 cell suspensions, 0.2 mM Boc‐VLK‐AMC, 15 min, read-out: concentration causing 50% inhibition of Kgp activity) and 2 nM in the series with Rgp (Pg 33277 cell suspensions).
For `Cc1cc(C)c(C(=O)OCC(=O)[C@H](CCCCN)NC(=O)[C@H](Cc2ccccc2)NC(=O)OCc2ccccc2)c(C)c1` [Z‐FK‐ck, Z‐Phe‐Lys‐2,4,6‐trimethylbenzoyloxy‐methylketone], the “concentration causing 50% loss of viability” value in the series with E. coli (37°C, in air) is 30 µM; with Pg (Pg 10^8 CFU/mL, 37°C, low oxygen), 30 µM. Also, the bactericidal activity result in the series with E. coli (concentrations up to 1 × 10^−4 M) and in the series on Pg was “significant bactericidal activity” throughout. Moreover, the figures for the IC50 at Kgp and in the series on Rgp (Pg 33277 cell suspensions) were 0.5 nM and 2000 nM, respectively.
In turn, `CC(=O)N[C@@H](CC(C)C)C(=O)N[C@H](C(=O)N[C@H](C=O)CCCCN)C(C)C` [cathepsin B inhibitor II, Ac‐Leu‐Val‐Lys‐aldehyde] (Ac-Leu-Val-Lys-aldehyde) returned an IC50 on Kgp of 50 nM. In the series on Rgp, the “effect on Rgp activity” value is on record as “no effect”. In addition, in the series on cathepsin B, the “effectiveness as inhibitor of cathepsin B relative to leupeptin” value is ~100 times.
Consider `CC(=O)N[C@@H](CC(C)C)C(=O)N[C@@H](CC(C)C)C(=O)N[C@H](C=O)CCCNC(=N)N` [leupeptin, Ac‐Leu‐Leu‐Arg‐aldehyde], for which the “effect on Kgp activity” value on Kgp (concentrations up to 1 × 10^−4 M, results not shown) is “no effect”. Also, the IC50 in the series with Rgp (Pg 33277 cell suspensions) amounted to 20 nM.
